# In patent US9113650B2, “Pectic enzyme treated pectin, method of producing the same and application thereof” (NATIONAL PINGTUNG UNIVERSITY OF SCIENCE AND TECHNOLOGY, priority 2011, dated 2015):
# Marks after values point to notes of the source that are not given here.
# Tests used:
# Assay type in all cases: biochemical
# [1] = Trolox equivalent antioxidant capacity (TEAC), ABTS
# Experimental: The ABTS could serve as the free radical source. After the mixture reacted in the dark for 12 to 16 hours and generated stably blue-green ABTS, followed by adding 0.25 mL of various concentrations of sample solutions (i.e. pectin solution, PET-pectin solution, BHT solution or Vit. E solution listed in TABLE 2) and reacting for 10 minutes. And then, the light absorbance of those mixtures at 734 nm was detected by the spectrophotometer, and the result was listed in TABLE 4. Each data of TABLE 4 was referred to the mean of samples in at least or more than triplicate. […] E analogue; Sigma, St. Louis, Mo., U.S.A.) standard curve established by using different concentrations of trolox as a reference. The results of TEAC are shown in FIG. 2 and the fourth column of TABLE 4.
# [2] = DPPH radical scavenging activity
# Experimental: 4 mL of sample solutions (i.e. pectin solution, PET-pectin solution, BHT solution or Vit. […] And then, the light absorbance of those mixtures at 517 nm was detected by the spectrophotometer, and their DPPH radical scavenging activities (%) were calculated according to the following formula (I), in which the lower light absorbance was referred to the stronger DPPH radical scavenging activity. Each data of TABLE 4 is referred to the mean of samples in triplicate and the result is listed in the third column of TABLE 4. [formula]
# [3] = Reducing power (Prussian blue, OD700 nm)
# Experimental: The reducing power of PET-pectin was determined by using the yield of Prussian blue [ferric ferrocyanide; […] In brief, three-valent […] ion (Fe^3+) of red blood salt (potassium […]; […] And then, the light absorbance of Prussian blue at 700 nm was detected to evaluate the reducing power, in which the higher light absorbance was referred to the stronger reducing power. This EXAMPLE could use the conventional method. The PET-pectin was prepared to various concentrations, each 20 μL aliquot of the sample solutions (i.e. pectin solution, PET-pectin solution, BHT solution or Vit. E solution listed in TABLE 2) was added with 50 μL of 0.2 M phosphate buffer (pH 6.6) containing 1% red blood salt [K3Fe(CN)6], incubated in water bath at 50° C. for 20 minutes and added with 50 μL of 10% trichloroacetic acid (TCA) solution. […] The absorbance at 700 nm is measured by the spectrophotometer and listed in the fifth column of TABLE 4, in which the higher light absorbance is referred to the stronger reducing power. Each data of TABLE 4 is referred to the mean of samples in at least or more than triplicate.
Structure (SMILES),TEAC (mM Trolox) ([1]; concentration 0.01 mg/mL),TEAC (mM Trolox) ([1]; concentration 0.10 mg/mL),DPPH radical scavenging activity(%) ([2]; concentration 0.01 mg/mL),DPPH radical scavenging activity(%) ([2]; concentration 0.10 mg/mL),Reducing Power (OD700 nm) ([3]; concentration 0.01 mg/mL),Reducing Power (OD700 nm) ([3]; concentration 0.10 mg/mL)
"Cc1cc(C(C)(C)C)c(O)c(C(C)(C)C)c1 [Butylated hydroxytoluene (BHT), Butylated hydroxytoluene]",0.4 ± 0.0^d mM Trolox,1.3 ± 0.2^c mM Trolox,5.2 ± 0.4^e %,49.2 ± 2.9^c %,0.5 ± 0.0^d OD700 nm,1.7 ± 0.1^b OD700 nm
"Cc1c(C)c2c(c(C)c1O)CC[C@@](C)(CCC[C@H](C)CCC[C@H](C)CCCC(C)C)O2 [α-tocopherol (Vit. E), α-tocopherol]",0.5 ± 0.0^d mM Trolox,3.5 ± 0.1^b mM Trolox,46.1 ± 0.4^d %,96.8 ± 0.5^a %,0.6 ± 0.0^d OD700 nm,2.5 ± 0.0^a OD700 nm
